Source: patent US20160138077A1, “MONITORING AND ASSESSING DEACETYLASE ENZYME ACTIVITY” (THE GENERAL HOSPITAL CORPORATION, priority 2013, published 2016)

Experiments:
[1] = target: Bovine serum albumin (Bos taurus, UniProt P02769); experiment: HP-1 deacetylation and protein binding assay (gel filtration, fluorescence)
Protocol: Solutions containing HP-1 (20 μM) in 30 μL HDAC buffer with 5% DMSO were incubated at 37° C. for four hours in the presence or absence of HDAC3 (3.6 μM). After incubation with HDAC3, NaCNBH3 (1.4 mM) or vehicle (H2O) and BSA (6 mg/mL) or vehicle (HDAC buffer), were added to the solutions prior to an additional incubation at 37° C. for two hours (all reactions were run in triplicate). Following the second incubation, the final solutions (50 μL) were added to G-25 columns (GE Healthcare, Buckinghamshire, UK) pre-equilibrated with milliQ water. The columns were then centrifuged at 700×g for 60 seconds before addition of milliQ water (50 μL). […] 75 μL of each fraction was transferred to a well in a 96-well, black, clear-bottom plate (Corning Incorporated, Corning, N.Y.) and the fluorescence was detected using an IVIS Spectrum (Caliper, Hopkinton, Mass.). To obtain the fluorescence signals, the 465 nm excitation filter, 530 nm emission filter, and a 5 second exposure were used. For analysis, the total photon flux over the area of each well was determined.
HP-1 deacetylation and protein binding assay. […] The fractions were transferred to a well in a 96-well, black, clear-bottom plate (Corning Incorporated, Corning, N.Y.) and the fluorescence was detected using an IVIS Spectrum (Caliper, Hopkinton, Mass.). […]

[2] = Stability of the enamide in HDAC buffer at pH 2-12 (HPLC/LCMS); type: physicochemical; conditions: HDAC assay buffer, room temperature, 20 μM
Protocol: HDAC buffer was adjusted to pH 2, 4, 6, 7, 8, 10 or 12 with […]. Compound 9 was dissolved in HDAC buffer at each pH to obtain 200 μL of a 20 μM solution. The solutions were kept at room temperature and 10 μL aliquots were analyzed at selected time points (t=0, 5, 10, 15, 30 and 60 minutes). Experiments were carried out in duplicate and the hydrolysis was monitored by HPLC and LCMS. HPLC measurements were made using a gradient elution system composed of water and acetonitrile with 0.01% ammonium formate at a flow rate of 1 mL/min on an Agilent Eclipse XDB-C18 chromatographic column (4.6 mm×150 mm). LCMS was performed with a gradient elution system composed of water and acetonitrile with 0.1% ammonium formate at a flow rate of 0.1 mL/min using an Agilent Eclipse XDB-C8 chromatographic column (5 μm particle size, 2.1 mm×150 mm).

Bovine serum albumin, sequence (P02769 25-607): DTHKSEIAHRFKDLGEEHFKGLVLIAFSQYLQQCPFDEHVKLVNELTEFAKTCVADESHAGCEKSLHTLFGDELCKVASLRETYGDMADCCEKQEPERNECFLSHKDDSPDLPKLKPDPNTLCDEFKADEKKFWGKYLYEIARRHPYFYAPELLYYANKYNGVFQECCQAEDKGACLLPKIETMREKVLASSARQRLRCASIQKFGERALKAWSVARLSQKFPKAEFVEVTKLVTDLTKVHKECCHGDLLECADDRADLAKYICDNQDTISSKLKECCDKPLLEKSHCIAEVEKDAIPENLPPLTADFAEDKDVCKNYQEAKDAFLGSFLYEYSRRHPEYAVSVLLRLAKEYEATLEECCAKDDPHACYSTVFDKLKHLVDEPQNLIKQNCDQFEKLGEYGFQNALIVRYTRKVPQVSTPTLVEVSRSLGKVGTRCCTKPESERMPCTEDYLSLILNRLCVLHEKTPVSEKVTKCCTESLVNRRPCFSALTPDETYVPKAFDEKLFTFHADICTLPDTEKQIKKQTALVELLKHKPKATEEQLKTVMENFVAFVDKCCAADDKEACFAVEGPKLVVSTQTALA

SMILES	increase in protein-DHP-1 binding compared to controls ([1]; HP-1 (20 μM) incubated with HDAC3, then BSA with NaCNBH3 (Lanes F and H)) [fold]	increase in detected protein-DHP-1 binding relative to controls ([1]; HP-1 (20 μM) incubated with HDAC3, then BSA, no NaCNBH3 (lanes E and G)) [fold]	conversion of the enamide to the aldehyde ([2]; pH 2, 60 min)	conversion of the enamide to the aldehyde ([2]; pH 4-12, 60 min)
O=CCCCCCNC(=O)CCCCCNc1ccc([N+](=O)[O-])c2nonc12 [DHP-1]	5	2	–	–
CC(=O)NC=CCCCCNC(=O)c1ccccc1 [Compound 9]	–	–	full conversion	no detectable conversion
